We go through five compounds from patent publication US20170137481A1, “Use of Cell-Permeable Peptide Inhibitors of the JNK Signal Transduction Pathway for the Treatment of Various Diseases” (Xigen Inflammation Ltd., priority 2014, published 2017).

In data set [1] the test system is gerbil model of transient global ischemia. Particulars: cited from earlier work.
The test system of data set [2] is primary embryonic cultures and differentiated PC12 cells. Particulars: after trophic withdrawal; cited from earlier work.
The subject of data set [3] is rat model of diabetic nephropathy. Put plainly: STZ rat model of diabetic nephropathy, chronic administration. The data set is classed as in vivo. Particulars: XG-102 1, 2, 4 mg/kg iv weekly; Losartan 25 mg/kg po daily. An excerpt: Losartan has been used as a positive control. Seventy-four male Sprague-Dawley rats (200-250 g; including 4 spare animals) from Charles River (Margate, Kent) were used. […] The diet has been purchased from Research Diets, New Jersey, USA. […] Animals have been housed in pairs throughout the study. […] During the third week of habituation, a blood sample has been taken from the lateral tail vein in the freely fed state using a hand-held glucose meter (One Touch Ultra 2). Blood sampling began at approximately 09:00. […] About 40 animals have been assigned to Cohort A and the remaining 30 to Cohort B, balanced as far as possible for body weight, plasma glucose and food and water intake. […] In all groups, food and water intake have been determined twice weekly (on the day of iv dosing and on water refill days. Blood glucose has been determined monthly. Samples were collected as detailed previously by glucometer (One Touch Ultra2). Blood samples have been taken in the freely fed state (beginning at approx. 09:00). Animals have been dosed immediately afterwards by the respective route to a timed schedule. Subsequent to dosing, each animal has been placed in a metabolism cage with free access to food and water for a 24 h period. To reduce evaporation, the glass urine collectors have been placed in a polystyrene container (Sca-online, UK) which was filled with ice. […]

For data set [4], the system named is TC-3 cell cultures. Put plainly: Cellular import of fluorescein labeled TAT and TAT-IB1(s) peptides. The data set is classed as cell-based. Particulars: 1 μM. On the procedure: The ability of the L- and D-enantiomeric forms of TAT and TAT-IB1(s) peptides (“TAT-IB peptides”) to enter cells was evaluated. L-TAT, D-TAT, L-TAT-IB1(s), and D-TAT-IB1(s) peptides [SEQ ID NOs: 5, 6, 9 and 12, respectively] were labeled by N-terminal addition of a glycine residue conjugated to fluorescein. Labeled peptides (1 μM) were added to TC-3 cell cultures, which were maintained as described in Example 3. At predetermined times cells were washed with PBS and fixed for five minutes in ice-cold methanol-acetone (1:1) before being examined under a fluorescence microscope. Fluorescein-labeled BSA (1 μM, 12 moles/mole BSA) was used as a control.

Data set [5] relates to AP-1 DNA binding complex in HeLa cell nuclear extracts. Nature of the data set: AP-1 gel retardation assay. The data set is classed as cell-based. Particulars: TNF-alpha 5 ng/ml.
For data set [6], the system named is TC-3 cells. Put plainly: IL-1 induced pancreatic beta-cell death with peptides. Particulars: 1 μM single addition, 15 days IL-1. Format: cell-based. On the procedure:
Inhibition of IL-1 induced pancreatic beta-cell death by the D-TAT-IB1(s) peptide was analyzed. TC-3 cells were incubated as described above for 30 minutes with one single addition of the indicated peptides (1 μM), then IL-1 (10 ng/ml) was added.
Apoptotic cells were then counted after two days of incubation with IL-1 by use of Propidium Iodide and Hoechst 33342 nuclear staining. A minimum of 1,000 cells were counted for each experiment. Standard Error of the Means (SEM) are indicated, n=5.
Long term inhibition of IL-1 P induced cell-death by the D-TAT-IB1 peptide was also analyzed. TC-3 cells were incubated as above for 30 minutes with one single addition of the indicated peptides (1 μM), then IL-1 (10 ng/ml) was added, followed by addition of the cytokine every two days. Apoptotic cells were then counted after 15 days of incubation with IL-1 by use of propidium iodide and Hoechst 33342 nuclear staining. […] A minimum of 1.000 cells were counted for each experiment.

The subject of data set [7] is recombinant JNK1, JNK2 and JNK3. Nature of the data set: Solid phase kinase assay, phosphorylation of c-Jun, ATF2 and Elk1. Particulars: dose response 0-25 μM. The data set is classed as biochemical. On the procedure: (§1) The effects of the peptides on JNKs-mediated phosphorylation of their target transcription factors were investigated in vitro. Recombinant and non activated JNK1, JNK2 and JNK3 were produced using a TRANSCRIPTION AND TRANSLATION rabbit reticulocyte lysate kit (Promega) and used in solid phase kinase assays with c-jun, ATF2 and Elk1, either alone or fused to glutathione-S-transferase (GST), as substrates. Dose response studies were performed wherein L-TAT or L-TAT-IB1 (s) peptides (0-25 μM) were mixed with the recombinant JNK1, JNK2, or JNK3 kinases in reaction buffer (20 mM Tris-acetate, 1 mM EGTA, 10 mM p-nitrophenyl-phosphate (pNPP), 5 mM sodium pyrophosphate, 10 mM p-glycerophosphate, 1 mM dithiothreitol) for 20 minutes. The kinase reactions were then initiated by the addition of 10 mM MgCl2 and […] ^33P-gamma-dATP and 1 μg of either GST-Jun (aa 1-89), GST-AFT2 (aa 1-96) or GST-ELK1 (aa 307-428). GST-fusion proteins were purchased from Stratagene (La Jolla, Calif.).
(§2) Ten μL of glutathione-agarose beads were also added to the mixture. Reaction products were then separated by SDS-PAGE on a denaturing 10% polyacrylamide gel. […] The ability of D-TAT, D-TAT-IB1(s) and L-TAT-IB1(s) peptides (0-250 μM dosage study) to inhibit GST-Jun (aa 1-73) phosphorylation by recombinant JNK1, JNK2, and JNK3 by were analyzed as described above. […]

Data set [8] has as its system JNK mediated activation of c-Jun in HeLa cells. Put plainly: GAL4-Jun luciferase reporter after MKK4/MKK7 co-transfection. The data set is classed as cell-based. Particulars: 1 μM. The text has this: To determine whether the cell-permeable peptides as defined herein could block JNK signaling in vivo, we used a heterologous GAL4 system. HeLa cells, cultured as described above, were co-transfected with the 5×GAL-LUC reporter vector together with the GAL-Jun expression construct (Stratagene) comprising the activation domain of c-Jun (amino acids 1-89) linked to the GAL4 DNA-binding domain. Activation of JNK was achieved by the co-transfection of vectors expressing the directly upstream kinases MKK4 and MKK7 (see Whitmarsh et al., Science 285: 1573 (1999)). Briefly, 3×10^5 cells were transfected with the plasmids in 3.5-cm dishes using DOTAP (Boehringer Mannheim) following instructions from the manufacturer. For experiments involving GAL-Jun, 20 ng of the plasmid was transfected with 1 μg of the reporter plasmid pFR-Luc (Stratagene) and 0.5 μg of either MKK4 or MKK7 expressing plasmids. Three hours following transfection, cell media were changed and TAT and TAT-IB1(s) peptides (1 μM) were added. The luciferase activities were measured 16 hours later using the “Dual Reporter System” from Promega after normalization to protein content. […] Because HeLa cells express JNK1 and JNK2 isoforms but not JNK3, we transfected cells with JNK3.

For data set [9], the system named is JNKs from UV-light irradiated HeLa cells or IL-1 treated TC-3 cells. Put plainly: c-Jun phosphorylation by activated JNKs pulled down with GST-Jun. Format: biochemical. Particulars: 25 μM. On the procedure: The effects of the L-TAT or L-TAT-IB1(s) peptides as defined herein on JNKs activated by stressful stimuli were evaluated using GST-Jun to pull down JNKs from UV-light irradiated HeLa cells or IL-1 treated PTC cells. PTC cells were cultured as described above. HeLa cells were cultured in DMEM medium supplemented with 10% Fetal Calf Serum, 100 μg/mL Streptomycin, 100 units/ml Penicillin and 2 mM Glutamine. One hour prior to being used for cell extract preparation, PTC cells were activated with IL-1 as described above, whereas HeLa cells were activated by UV-light (20 J/m^2). Cell extracts were prepared from control, UV-light irradiated HeLa cells and IL-1 treated TC-3 cells by scraping the cell cultures in lysis buffer (20 mM Tris-acetate, 1 mM EGTA, 1% Triton X-100, 10 mM p-nitrophenyl-phosphate, 5 mM sodium pyrophosphate, 10 mMP-glycerophosphate, 1 mM dithiothreitol). Debris was removed by centrifugation for five minutes at 15,000 rpm in an SS-34 Beckman rotor. One-hundred μg extracts were incubated for one hour at room temperature with one μg GST-jun (amino acids 1-89) and 10 μL of glutathione-agarose beads (Sigma). Following four washes with the scraping buffer, the beads were resuspended in the same buffer supplemented with L-TAT or L-TAT-IB1(s) peptides (25 μM) for 20 minutes. […]

In data set [10] the target is T1, JNK3 (Homo sapiens, UniProt P53779).
T1 construct: host or cells: cell-free: rabbit reticulocyte lysate transcription/translation
T1 sequence (P53779 whole entry, species assumed): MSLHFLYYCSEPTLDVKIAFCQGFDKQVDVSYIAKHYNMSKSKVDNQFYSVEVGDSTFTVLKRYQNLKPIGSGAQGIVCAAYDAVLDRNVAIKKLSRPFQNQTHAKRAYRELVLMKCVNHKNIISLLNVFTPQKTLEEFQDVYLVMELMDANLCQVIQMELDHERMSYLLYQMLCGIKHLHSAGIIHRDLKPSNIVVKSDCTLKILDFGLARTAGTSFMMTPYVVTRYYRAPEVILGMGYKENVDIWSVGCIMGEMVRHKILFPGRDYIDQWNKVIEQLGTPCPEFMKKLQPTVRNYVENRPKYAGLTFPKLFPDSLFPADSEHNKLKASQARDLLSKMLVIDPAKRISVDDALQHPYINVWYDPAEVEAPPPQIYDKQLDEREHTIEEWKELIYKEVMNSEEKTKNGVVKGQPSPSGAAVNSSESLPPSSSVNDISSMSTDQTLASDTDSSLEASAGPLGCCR
Nature of the data set: Solid phase kinase assay, JNK3 phosphorylation of Elk1. The data set is classed as biochemical. Particulars: 0-25 μM. On the procedure: as §1, §2

For `N#CC(c1ccnc(NCCc2cccnc2)n1)c1nc2ccccc2s1` (centres unmarked) [AS601245], in data set [1], the “delayed loss of hippocampal CA1 neurons” value is “significant protection against the delayed loss of hippocampal CA1 neurons”.

On to `CCSCc1ccc2c(c1)c1c3c(c4c5cc(CSCC)ccc5n5c4c1n2[C@H]1C[C@](O)(C(=O)OC)[C@]5(C)O1)CNC3=O` [CEP-1347], for which, in data set [2], the neuronal survival result is on record as “promotes neuronal survival”.

On to `CCCCc1nc(Cl)c(CO)n1Cc1ccc(-c2ccccc2-c2nn[nH]n2)cc1` [Losartan], for which, in data set [3], the “body weight versus vehicle-treated STZ rats” value is given as “significantly lower”.

As to “GRKKRRQRRRPPRPKRPTTLNLFPQVPRSQD (Description of sequence L-TAT-IB1 (s) (see Table 1)) [L-TAT-IB1(s)]”, in data set [4], the entry into cells entry is “efficiently and rapidly (less than five minutes) entered cells”. Moreover, the “formation of the AP-1 DNA binding complex” value in [5] is given as “decrease the formation of the AP-1 DNA binding complex in the presence of TNF-alpha”. In addition, the “long term protection from IL-1 induced cell death” value in data set [6] is “not”.

On to “TAT-IB(s): TAT-IB1(s) peptide of Examples 5 to 7, there the L-TAT-IB1(s) peptide (GRKKRRQRRRPPRPKRPTTLNLFPQVPRSQD)”, for which the “peptide dose with nearly complete inhibition of c-Jun, ATF2 and Elk1 phosphorylation by JNKs” value in [7] came to 2.5 µM. Besides, the “activation of c-Jun in cells transfected with JNK3” value in data set [8] is “inhibited JNK2 mediated activation of c-Jun”. The “activation of c-Jun following MKK4 and MKK7 mediated activation of JNK” value in data set [8] (luciferase 16 hours later) is “blocked activation of c-Jun following MKK4 and MKK7 mediated activation of JNK”. Besides, the “phosphorylation of c-Jun by activated JNKs” value in [9] is listed as “efficiently prevented phosphorylation of c-Jun by activated JNKs”. For the same compound, the “inhibition of JNK3 phosphorylation of Elk1” value in data set [10] is recorded as “absence of TAT-IB(s) inhibition of JNK3 phosphorylation of Elk1”.
